We go through 28 compounds from patent US20240140931A1, “TRICYCLIC COMPOUNDS AND USES THEREOF” (HUTCHMED LIMITED, priority 2021, published 2024).

Test [1] deals with pERK1/2 (Thr202/Tyr204) in Miapaca2 cells. The test is described as follows: Assay of intracellular pERK1/2 (Thr202/Tyr204) phosphorylation. The test is classed as cell-based. To be noted: pERK1/2 (Thr202/Tyr204) HTRF. An outline of the steps: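 HTRF read-out (665/615 nm) of phospho-ERK1/2 Thr202/Tyr204 in lysates from Miapaca2 cells exposed for 2 h to 3-fold compound dilutions at 0.5% final DMSO. Controls: lysis buffer without cells and DMSO-treated cells; IC50 from four-parameter logistic fit.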
(In TR-FRET formats the signal depends on donor and acceptor labels being close together.)

For another test, the system named is Miapaca2 3D spheroids. The test is described as follows: Assay of cell proliferation on Miapaca2 3D spheroids. The format is cell-based. To be noted: CellTiter-Glo 3D, 5 days treatment. As for the experimental part: Example 4 Assay of Cell Proliferation on Miapaca2 3D Spheroids
1. Reagents and Materials • CellTiter-Glo® 3D Cell Viability Assay Kit: Promega, Cat #G9683; • CellCarrier Spheroid ULA 96-well plate: Corning, Cat #4515; • Instrument: Envision, Perkinelmer; • Cell line: Miapaca2, ATCC, Cat #CRL-1420.
2. Preparation of Reaction Solutions • The test compound was dissolved in DMSO and diluted with DMSO to 3000.0 μM, and the compound was further 3-fold diluted with DMSO to: 1000.0, 333.3, 111.1, 37.0, 12.3, 4.1, and 1.4 μM. Then 2 μL of the compound at different dilution concentrations was added to 198 μL of a 1640 medium to prepare a 10× test compound, wherein DMSO was at the concentration of 1% (DMSO was at the final concentration of 0.1%).
3. Experimental Methods • Day0: Digest cells and count cell numbers. Miapaca2 cells were inoculated into a spheroid ULA 96-well plate at a density of 300 cells/well at 100 μL/well and cultured in a cell incubator at 5% CO2 and 37° C. • Day2: The cell spheroids formed at day2. Add 10 μL of 10× test compounds to the 96-well plate. To the cell positive control well was added 10 μL of 1% DMSO 1640 medium. Incubate the cell spheroids in a cell incubator at 5% CO2 and 37° C. for additional 5 days. • Cell viability assay: Add 50 μL of CellTiter-Glo reagent to each well, place the plate in a microplate shaker, and lysis under shaking at 900 rpm at room temperature for 5 minutes. Then incubate the plate at room temperature in the dark for 30 minutes. • The luminescene of each well was detected on Envision2104.
Cell Survial %=(Lum(d7 treatment)−Lum(d2 cell))/(Lum(d7 cell)−Lum(d2 cell))×100
Wherein: • Lum(d7 treatment) refers to the luminescene of the test compound treated cells on day7; • Lum(d2 cell) refers to the luminescene of the 0.1% DMSO treated Miapaca2 cells on day2; • Lum(d7 cell) refers to the luminescene of the 0.1% DMSO treated Miapaca2 cells on day7. • IC50 values were calculated following formula 205: y=A+((B−A)/(1+((C/X)^D))), by using the XL-Fit 5.0 software.
Background: In ATP-based viability assays light output follows the ATP content of the culture.

Test [2] addresses Human full-length SHP2 recombinant protein (Homo sapiens (Human), UniProt Q06124). The test is described as follows: Assay of full-length SHP2 phosphatase activity. The test is classed as biochemical. To be noted: DiFMUP substrate, with activating peptide. In a few lines: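 Readout: DiFMUP hydrolysis fluorescence (355/460 nm) after 60 min at 25 °C, following 30 min RT preincubation of compound with peptide-activated full-length human SHP2. Controls were 1% DMSO with or without enzyme; IC50 by four-parameter logistic fit.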

[3] abbreviates: Homo sapiens, MIA PaCa-2, 120 h.

Chain of Human full-length SHP2 recombinant protein (Q06124 whole entry): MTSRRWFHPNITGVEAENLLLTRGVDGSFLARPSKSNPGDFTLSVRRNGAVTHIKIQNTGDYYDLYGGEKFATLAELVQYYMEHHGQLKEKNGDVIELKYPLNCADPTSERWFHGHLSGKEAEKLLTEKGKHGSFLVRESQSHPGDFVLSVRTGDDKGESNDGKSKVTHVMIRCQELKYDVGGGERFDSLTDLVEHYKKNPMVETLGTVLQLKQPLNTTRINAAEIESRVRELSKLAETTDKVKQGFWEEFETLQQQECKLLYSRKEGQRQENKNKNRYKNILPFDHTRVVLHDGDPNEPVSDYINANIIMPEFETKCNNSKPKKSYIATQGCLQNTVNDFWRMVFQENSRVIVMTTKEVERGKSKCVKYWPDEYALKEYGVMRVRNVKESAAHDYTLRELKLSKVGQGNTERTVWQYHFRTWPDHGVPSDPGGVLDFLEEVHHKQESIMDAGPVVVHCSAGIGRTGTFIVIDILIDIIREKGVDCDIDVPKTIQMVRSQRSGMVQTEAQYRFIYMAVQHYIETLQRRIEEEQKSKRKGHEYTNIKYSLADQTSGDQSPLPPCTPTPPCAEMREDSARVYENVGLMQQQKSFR

Turning to `CC#Cc1ccc2c(c1)[C@@H](N)C1(CCN(c3nc(N)c(Sc4ccnc(N)c4Cl)c(=O)n3C)CC1)C2` [Compound 289], the half-maximal inhibitory concentration (IC50) – broadly, the concentration that inhibits the measured activity by half – in test [1] (Homo sapiens, MIA PaCa-2, 2 h) worked out at 4 nM; with Miapaca2 3D spheroids (setting [3]), 2 nM; in test [2], 2 nM.
Regarding `COCC#Cc1ccc2c(c1)[C@@H](N)C1(CCN(c3cc(=O)n(-c4ccc(F)c(OC)c4Cl)c(C)n3)CC1)C2` [Compound 158], the IC50 in test [1] (2 hours) turned out to be 31 nM; in the test with Miapaca2 3D spheroids, 32 nM; in test [2] it was 3 nM.
Regarding `CCNC(=O)C#Cc1ccc2c(c1)[C@@H](N)C1(CCN(c3cnc(Sc4ccnc(N)c4Cl)cn3)CC1)C2` [Compound 155], the IC50 came out at 2 nM in test [1] (Homo sapiens, MIA PaCa-2, 2 h); 0.9 nM in the test with Miapaca2 3D spheroids (setting [3]); 1 nM in test [2].
The matching figures for `C#Cc1cc(F)c2c(c1)[C@@H](N)C1(CCN(c3ncc(Sc4ccnc(N)c4Cl)n4nccc34)CC1)C2` [Compound 176]: 41 nM, 97 nM and 38 nM.
The matching figures for `CNC(=O)C#Cc1ccc2c(c1)[C@@H](N)C1(CCN(c3cnc(Sc4ccnc(N)c4F)c(N)n3)CC1)C2` [Compound 264]: 2 nM, 0.4 nM and 0.6 nM.
For the compound `CCNC(=O)C#Cc1ccc2c(c1)[C@@H](N)C1(CCN(c3cnc(Sc4cccnc4C(F)(F)F)c(N)n3)CC1)C2` [Compound 235], the IC50 in test [1] (Homo sapiens, MIA PaCa-2, 2 h) worked out at 9 nM; in the test on Miapaca2 3D spheroids (setting [3]), 0.9 nM; in test [2], 1.7 nM.
`Nc1nccc(Sc2cnc(N3CCC4(CC3)Cc3ccc(C#CC(=O)NC5CC5)cc3[C@H]4N)cn2)c1Cl` [Compound 296]: the IC50 was found to be 2 nM in test [1] (Homo sapiens, MIA PaCa-2, 2 h); 0.7 nM in the test with Miapaca2 3D spheroids (setting [3]); 0.3 nM in test [2].
For the compound `CNC(=O)C#Cc1ccc2c(c1)[C@@H](N)C1(CCN(c3cnc(Sc4cccnc4C(F)(F)F)cn3)CC1)C2` [Compound 242], the IC50 in test [1] (Homo sapiens, MIA PaCa-2, 2 h) stood at 13 nM; in the test on Miapaca2 3D spheroids (setting [3]), 2 nM; in test [2], 0.7 nM.
For `CNC(=O)C#Cc1ccc2c(c1)[C@@H](N)C1(CCN(c3nc(N)c(Sc4ccnc(N)c4Cl)nc3Cl)CC1)C2` [Compound 222, (S)-3-(1-amino-1′-(6-amino-5-((2-amino-3-chloropyridin-4-yl)thio)-3-chloropyrazin-2-yl)-1,3-dihydrospiro[indene-2,4′-piperidin]-6-yl)-N-methylpropiolamide], the 50% inhibitory concentration (IC50) in test [1] (Homo sapiens, MIA PaCa-2, 2 h) came out at 6 nM; with Miapaca2 3D spheroids (setting [3]), 15 nM; in test [2] it was 4 nM.
The matching figures for `Cc1nc(Sc2ccnc(N)c2Cl)c(N)nc1N1CCC2(CC1)Cc1ccc(C#CC(=O)NC3CC3)cc1[C@H]2N` [Compound 225]: 6 nM, 2 nM and 2 nM.
For `CNC(=O)C#Cc1ccc2c(c1)[C@@H](N)C1(CCN(c3cc(=O)n(-c4cccc(Cl)c4Cl)c(C)n3)CC1)C2` [Compound 173], the half-inhibitory concentration (IC50) was determined as 18 nM in test [1] (Homo sapiens, MIA PaCa-2, 2 h); 24 nM with Miapaca2 3D spheroids (setting [3]); 1 nM in test [2].
On to `COCC#Cc1cc(F)c2c(c1)[C@@H](N)C1(CCN(c3cc(=O)n(-c4cccc(Cl)c4Cl)c(C)n3)CC1)C2` [Compound 166], for which the 50% inhibitory concentration (IC50) in test [1] (Homo sapiens, MIA PaCa-2, 2 h) came to 38 nM; in the test with Miapaca2 3D spheroids (setting [3]), 110 nM; in test [2], 6 nM.
The matching figures for `Cc1nc(N2CCC3(CC2)Cc2ccc(C#CC(N)=O)cc2[C@H]3N)cnc1Sc1ccnc(N)n1` [Compound 281]: 167 nM, 24 nM and 10 nM.
Take `CNC(=O)C#Cc1ccc2c(c1)[C@@H](N)C1(CCN(c3cc(=O)n(-c4ccc(F)c(F)c4Cl)c(C)n3)CC1)C2` (atropisomer, axis not shown) [Compound 209]: the half-maximal inhibitory concentration (IC50) in test [1] (2 hours) worked out at 19 nM; in the test on Miapaca2 3D spheroids it was 38 nM; in test [2], 1 nM.
On to `CCNC(=O)C#Cc1ccc2c(c1)[C@@H](N)C1(CCN(c3cnc(N4CCCc5ncccc54)cn3)CC1)C2` [Compound 243, (S)-3-(1-amino-1′-(5-(3,4-dihydro-1,5-naphthyridin-1(2H)-yl)pyrazin-2-yl)-1,3-dihydrospiro[indene-2,4′-piperidin]-6-yl)-N-ethylpropiolamide], for which the IC50 in test [1] (Homo sapiens, MIA PaCa-2, 2 h) stood at 19 nM; in the test with Miapaca2 3D spheroids (setting [3]) it was 15 nM; in test [2], 0.7 nM.
As for `CNC(=O)C#Cc1ccc2c(c1)[C@@H](N)C1(CCN(c3nc(N)c(Sc4ccnc(OC)c4Cl)nc3C)CC1)C2` [Compound 188], the IC50 turned out to be 14 nM in test [1] (Homo sapiens, MIA PaCa-2, 2 h); 47 nM with Miapaca2 3D spheroids (setting [3]); 5 nM in test [2].
The matching figures for `CNC(=O)C#Cc1ccc2c(c1)[C@@H](N)C1(CCN(c3nc(N)c(Sc4ccnc(C)c4Cl)nc3C)CC1)C2` [Compound 189]: 7 nM, 15 nM and 1 nM.
`CCNC(=O)C#Cc1ccc2c(c1)[C@@H](N)C1(CCN(c3cnc(Sc4ccnc(N)c4F)cn3)CC1)C2` [Compound 257]: the half-inhibitory concentration (IC50) in test [1] (Homo sapiens, MIA PaCa-2, 2 h) is 1 nM; in the test on Miapaca2 3D spheroids (setting [3]) it was 0.3 nM; in test [2] it was < 0.5 nM.
On to `C#Cc1ccc2c(c1)[C@@H](N)C1(CCN(c3cnc(Sc4ccnc(N)c4Cl)cn3)CC1)C2` [Compound 252], for which the concentration for half-maximal inhibition (IC50) in test [1] (Homo sapiens, MIA PaCa-2, 2 h) is 3 nM; in the test with Miapaca2 3D spheroids (setting [3]) it was 1 nM; in test [2], 1 nM.
`CCNC(=O)C#Cc1ccc2c(c1)[C@@H](N)C1(CCN(c3nc(N)c(Sc4ccnc(N)c4Cl)nc3C)CC1)C2` [Compound 219]: the IC50 in test [1] (Homo sapiens, MIA PaCa-2, 2 h) worked out at 7 nM; in the test on Miapaca2 3D spheroids (setting [3]) it was 6 nM; in test [2] it was 3 nM.
The matching figures for `CCCNC(=O)C#Cc1ccc2c(c1)[C@@H](N)C1(CCN(c3nc(N)c(Sc4ccnc(N)c4Cl)nc3C)CC1)C2` [Compound 237]: 4 nM, 2.4 nM and 3.9 nM.
The matching figures for `CNC(=O)C#Cc1ccc2c(c1)[C@@H](N)C1(CCN(c3ncc(Sc4ccnc(N)n4)nc3C)CC1)C2` [Compound 233]: 14 nM, 3.2 nM and 1.1 nM.
The matching figures for `C#Cc1ccc2c(c1)[C@@H](N)C1(CCN(c3ncc(Sc4ccnc(N)c4Cl)n4nccc34)CC1)C2` [Compound 156]: 10 nM, 31 nM and 6 nM.
In the case of `CNC(=O)C#Cc1ccc2c(c1)[C@@H](N)C1(CCN(c3nc(N)c(Sc4ccnc(N)n4)nc3C)CC1)C2` [Compound 216], the IC50 in test [1] (Homo sapiens, MIA PaCa-2, 2 h) was 45 nM; in the test on Miapaca2 3D spheroids (setting [3]), 28 nM; in test [2], 1 nM.
The matching figures for `CC#Cc1ccc2c(c1)[C@@H](N)C1(CCN(c3ncc(Sc4ccnc(N)c4Cl)c(=O)n3C)CC1)C2` [Compound 288]: 4 nM, 2 nM and 2 nM.
Turning to `CNC(=O)C#Cc1ccc2c(c1)[C@@H](N)C1(CCN(c3cnc(Sc4ccnc(N)n4)cn3)CC1)C2` [Compound 262], the IC50 in test [1] (Homo sapiens, MIA PaCa-2, 2 h) stood at 7 nM; in the test on Miapaca2 3D spheroids (setting [3]), 1 nM; in test [2] it was 0.3 nM.
The matching figures for `CNC(=O)C#Cc1ccc2c(c1)[C@@H](N)C1(CCN(c3cnc(Sc4ccnc(N)c4Cl)cn3)CC1)C2` [Compound 227]: 2 nM, 0.4 nM and 1 nM.
Turning to `CN(C)C(=O)C#Cc1ccc2c(c1)[C@@H](N)C1(CCN(c3ncc(Sc4ccnc(N)c4Cl)n4nccc34)CC1)C2` [Compound 196], the half-inhibitory concentration (IC50) in test [1] (Homo sapiens, MIA PaCa-2, 2 h) was found to be 8 nM; in the test on Miapaca2 3D spheroids (setting [3]) it was 21 nM; in test [2] it was 3 nM.
